Tests used:
[1] = system: human mesenchymal stem cells (hMSCs); assay: Macromer extract dilution cytocompatibility test (modified ISO 10993-5, Live/Dead); conditions: undiluted (1X) extract from 10 minute media incubation with macromer, 24 hour culture
Method: Bone marrow-derived human mesenchymal stem cells (hMSCs) were obtained as Passage 1 in a cryovial from the Center for the Preparation and Distribution of Adult Stem Cells. Cells were cultured in growth media containing 16.5% fetal bovine serum (Atlanta Biologicals), 1% L-glutamine (Life Technologies) and Minimum Essential Media α (MEM α, Life Technologies) to about 80% confluency and utilized at Passages 5 and 6. Cells were trypsinized with 0.25% Trypsin-EDTA (Life Technologies) and seeded at a density of about 40,000 cells/cm^2 in a 96 well plate and allowed to adhere for about 24 hours. On the following day, about 100 μl of each macromer was incubated in about 300 μl growth media supplemented with 1 vol. % penicillin-streptomycin (Life Technologies) in a 48 well plate to mimic the ratio of organic to aqueous phase in the HIPE. After about 10 minute incubation at about 37° C., 5% CO2, the supernatant above the macromers was aspirated and diluted to about 10× and about 100× solutions. […] Extracted and diluted media (1, 10, and 100×) was then added to cells and cultured for an additional time, generally about 24 hours. Viability was assessed utilizing the Live/Dead® assay kit (registration with Molecular Probes Corporation, Eugene, Oreg.). The analysis used a plate reader (Tecan Infinite M200Pro) with excitation/emission wavelengths of 485/528 and 528/620 for calcein-AM and ethidium homodimer-1 dyes, respectively. Viability was normalized to cells on tissue culture polystyrene.

[2] = previously described PFDMA macromer; cited from earlier work

C=C(C)C(=O)OCCOC(=O)C(=C)C [EGDMA, ethylene glycol dimethacrylate]
hMSC viability after exposure to extract media [1]: less

propylene fumarate dimethacrylate [PFDMA]
Macromer viscosity [2]: about 125 cP | hMSC viability after exposure to extract media [1]: > 80%

C=C(C)C(=O)OCCCCOC(=O)C(=C)C [BDMA, butane diol dimethacrylate]
hMSC viability after exposure to extract media [1]: less
